From the supplement of paper PMC12532568

Test system: Danio rerio larvae Tg(actc1b:ZsGreen-LC3), 3 dpf
Experiment: LC3 puncta relative area vs vehicle (mean) (log2 fold change); higher = more autophagy
Conditions: treatment time 16 h
Procedure: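 Transgenic ZsGreen-LC3 zebrafish larvae (2 dpf) were treated for 16 h with natural bioactives at 10, 50, 100 or 250 µM. Skeletal-muscle LC3 puncta area was measured by high-content imaging with or without 4 h of 100 mM NH4Cl, normalised to vehicle, and reported as the mean log2 fold change over 4–21 larvae.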

O=c1oc2cc(O)ccc2c2ccccc12 [Urolithin B]
LC3 puncta (log2) (NH4Cl: + NH4Cl, 10 µM): 0.159 | LC3 puncta (log2) (NH4Cl: + NH4Cl, 50 µM): 1.38 | LC3 puncta (log2) (NH4Cl: + NH4Cl, 100 µM): 1.04 | LC3 puncta (log2) (NH4Cl: - NH4Cl, 10 µM): 0.474 | LC3 puncta (log2) (NH4Cl: - NH4Cl, 50 µM): 0.688 | LC3 puncta (log2) (NH4Cl: - NH4Cl, 100 µM): 0.767

CC(C)CC(O)C(=O)O (stereo not drawn) [2-Hydroxyisocaproic acid]
LC3 puncta (log2) (NH4Cl: + NH4Cl, 10 µM): 0.569 | LC3 puncta (log2) (NH4Cl: + NH4Cl, 50 µM): 1.04 | LC3 puncta (log2) (NH4Cl: + NH4Cl, 100 µM): 1.46 | LC3 puncta (log2) (NH4Cl: + NH4Cl, 250 µM): 1.21 | LC3 puncta (log2) (NH4Cl: - NH4Cl, 10 µM): -0.489 | LC3 puncta (log2) (NH4Cl: - NH4Cl, 50 µM): 0.415 | LC3 puncta (log2) (NH4Cl: - NH4Cl, 100 µM): 0.346 | LC3 puncta (log2) (NH4Cl: - NH4Cl, 250 µM): 0.416

CC1=C(/C=C/C(C)=C/C=C/C(C)=C/C=C/C=C(C)/C=C/C=C(C)/C=C/C2=C(C)CCCC2(C)C)C(C)(C)CCC1 [beta-Carotene]
LC3 puncta (log2) (NH4Cl: + NH4Cl, 10 µM): 0.44 | LC3 puncta (log2) (NH4Cl: + NH4Cl, 50 µM): 0.208 | LC3 puncta (log2) (NH4Cl: + NH4Cl, 100 µM): 0.299 | LC3 puncta (log2) (NH4Cl: + NH4Cl, 250 µM): 1.2 | LC3 puncta (log2) (NH4Cl: - NH4Cl, 10 µM): 0.227 | LC3 puncta (log2) (NH4Cl: - NH4Cl, 50 µM): -0.273 | LC3 puncta (log2) (NH4Cl: - NH4Cl, 100 µM): 0.207 | LC3 puncta (log2) (NH4Cl: - NH4Cl, 250 µM): 0.305

CCCCCCCC(=O)[O-].[Na+] [Sodium octanoate]
LC3 puncta (log2) (NH4Cl: + NH4Cl, 10 µM): 0.613 | LC3 puncta (log2) (NH4Cl: + NH4Cl, 50 µM): 0.427 | LC3 puncta (log2) (NH4Cl: + NH4Cl, 100 µM): 0.342 | LC3 puncta (log2) (NH4Cl: + NH4Cl, 250 µM): 0.503 | LC3 puncta (log2) (NH4Cl: - NH4Cl, 10 µM): -0.0249 | LC3 puncta (log2) (NH4Cl: - NH4Cl, 50 µM): 0.344 | LC3 puncta (log2) (NH4Cl: - NH4Cl, 100 µM): 0.217 | LC3 puncta (log2) (NH4Cl: - NH4Cl, 250 µM): 0.272

CC(=O)C(C)=O [Biacetyl]
LC3 puncta (log2) (NH4Cl: + NH4Cl, 10 µM): 0.347 | LC3 puncta (log2) (NH4Cl: + NH4Cl, 50 µM): 0.581 | LC3 puncta (log2) (NH4Cl: + NH4Cl, 100 µM): 0.946 | LC3 puncta (log2) (NH4Cl: + NH4Cl, 250 µM): 0.981 | LC3 puncta (log2) (NH4Cl: - NH4Cl, 10 µM): 0.0128 | LC3 puncta (log2) (NH4Cl: - NH4Cl, 50 µM): 0.343 | LC3 puncta (log2) (NH4Cl: - NH4Cl, 100 µM): 0.699 | LC3 puncta (log2) (NH4Cl: - NH4Cl, 250 µM): 0.218

C[C@@H](O)C(=O)O [(2R)-2-hydroxypropanoic acid]
LC3 puncta (log2) (NH4Cl: + NH4Cl, 10 µM): 0.532 | LC3 puncta (log2) (NH4Cl: + NH4Cl, 50 µM): 0.237 | LC3 puncta (log2) (NH4Cl: + NH4Cl, 100 µM): 0.304 | LC3 puncta (log2) (NH4Cl: + NH4Cl, 250 µM): 0.589 | LC3 puncta (log2) (NH4Cl: - NH4Cl, 10 µM): 0.00532 | LC3 puncta (log2) (NH4Cl: - NH4Cl, 50 µM): -0.27 | LC3 puncta (log2) (NH4Cl: - NH4Cl, 100 µM): 0.144 | LC3 puncta (log2) (NH4Cl: - NH4Cl, 250 µM): -0.203

O=C(O)CCC(=O)O [Succinic acid]
LC3 puncta (log2) (NH4Cl: + NH4Cl, 10 µM): 0.752 | LC3 puncta (log2) (NH4Cl: + NH4Cl, 50 µM): 0.769 | LC3 puncta (log2) (NH4Cl: + NH4Cl, 100 µM): 0.297 | LC3 puncta (log2) (NH4Cl: + NH4Cl, 250 µM): 0.806 | LC3 puncta (log2) (NH4Cl: - NH4Cl, 10 µM): 0.044 | LC3 puncta (log2) (NH4Cl: - NH4Cl, 50 µM): 0.06 | LC3 puncta (log2) (NH4Cl: - NH4Cl, 100 µM): -0.705 | LC3 puncta (log2) (NH4Cl: - NH4Cl, 250 µM): -0.0293

CCCCCCCCCCCCCCCCCC(=O)O [stearic acid]
LC3 puncta (log2) (NH4Cl: + NH4Cl, 10 µM): 0.718 | LC3 puncta (log2) (NH4Cl: + NH4Cl, 50 µM): 0.677 | LC3 puncta (log2) (NH4Cl: + NH4Cl, 100 µM): 0.635 | LC3 puncta (log2) (NH4Cl: + NH4Cl, 250 µM): 1.13 | LC3 puncta (log2) (NH4Cl: - NH4Cl, 10 µM): 0.39 | LC3 puncta (log2) (NH4Cl: - NH4Cl, 50 µM): 0.392 | LC3 puncta (log2) (NH4Cl: - NH4Cl, 100 µM): 0.127 | LC3 puncta (log2) (NH4Cl: - NH4Cl, 250 µM): 0.245

NC(=O)c1ccc[n+]([C@@H]2O[C@H](COP(=O)([O-])O)[C@@H](O)[C@H]2O)c1 [Nicotinamide mononucleotide]
LC3 puncta (log2) (NH4Cl: + NH4Cl, 10 µM): 1.01 | LC3 puncta (log2) (NH4Cl: + NH4Cl, 50 µM): 0.775 | LC3 puncta (log2) (NH4Cl: + NH4Cl, 100 µM): 0.349 | LC3 puncta (log2) (NH4Cl: + NH4Cl, 250 µM): 0.19 | LC3 puncta (log2) (NH4Cl: - NH4Cl, 10 µM): -0.0834 | LC3 puncta (log2) (NH4Cl: - NH4Cl, 50 µM): -0.119 | LC3 puncta (log2) (NH4Cl: - NH4Cl, 100 µM): -0.518 | LC3 puncta (log2) (NH4Cl: - NH4Cl, 250 µM): -0.271

O=c1c(O)c(-c2ccc(O)c(O)c2)oc2cc(O)cc(O)c12 [Quercetin]
LC3 puncta (log2) (NH4Cl: + NH4Cl, 10 µM): 0.773 | LC3 puncta (log2) (NH4Cl: + NH4Cl, 50 µM): 0.126 | LC3 puncta (log2) (NH4Cl: + NH4Cl, 100 µM): 0.298 | LC3 puncta (log2) (NH4Cl: + NH4Cl, 250 µM): 0.298 | LC3 puncta (log2) (NH4Cl: - NH4Cl, 10 µM): -0.173 | LC3 puncta (log2) (NH4Cl: - NH4Cl, 50 µM): -0.502 | LC3 puncta (log2) (NH4Cl: - NH4Cl, 100 µM): -1.19 | LC3 puncta (log2) (NH4Cl: - NH4Cl, 250 µM): -0.815

C[C@@H](O)CCO [(R)-1,3-Butylene Glycol]
LC3 puncta (log2) (NH4Cl: + NH4Cl, 10 µM): 0.22 | LC3 puncta (log2) (NH4Cl: + NH4Cl, 50 µM): -0.0174 | LC3 puncta (log2) (NH4Cl: + NH4Cl, 100 µM): 0.179 | LC3 puncta (log2) (NH4Cl: + NH4Cl, 250 µM): 0.0875 | LC3 puncta (log2) (NH4Cl: - NH4Cl, 10 µM): 0.0281 | LC3 puncta (log2) (NH4Cl: - NH4Cl, 50 µM): -0.261 | LC3 puncta (log2) (NH4Cl: - NH4Cl, 100 µM): -0.294 | LC3 puncta (log2) (NH4Cl: - NH4Cl, 250 µM): -0.184

C[N+](C)(C)CCO.C[N+](C)(C)CCO.C[N+](C)(C)CCO.O=P([O-])([O-])[O-] [Tricholine phosphate]
LC3 puncta (log2) (NH4Cl: + NH4Cl, 10 µM): 0.7 | LC3 puncta (log2) (NH4Cl: + NH4Cl, 50 µM): 0.208 | LC3 puncta (log2) (NH4Cl: + NH4Cl, 100 µM): -0.172 | LC3 puncta (log2) (NH4Cl: + NH4Cl, 250 µM): 0.38 | LC3 puncta (log2) (NH4Cl: - NH4Cl, 10 µM): 0.0959 | LC3 puncta (log2) (NH4Cl: - NH4Cl, 50 µM): 0.0907 | LC3 puncta (log2) (NH4Cl: - NH4Cl, 100 µM): 0.25 | LC3 puncta (log2) (NH4Cl: - NH4Cl, 250 µM): -0.277

CCCCCCCC/C=C\CCCCCCCCCCCCCC(=O)O [Nervonic acid]
LC3 puncta (log2) (NH4Cl: + NH4Cl, 10 µM): 0.639 | LC3 puncta (log2) (NH4Cl: + NH4Cl, 50 µM): 0.888 | LC3 puncta (log2) (NH4Cl: + NH4Cl, 100 µM): 1.09 | LC3 puncta (log2) (NH4Cl: + NH4Cl, 250 µM): 0.707 | LC3 puncta (log2) (NH4Cl: - NH4Cl, 10 µM): -0.0528 | LC3 puncta (log2) (NH4Cl: - NH4Cl, 50 µM): 0.0416 | LC3 puncta (log2) (NH4Cl: - NH4Cl, 100 µM): 0.723 | LC3 puncta (log2) (NH4Cl: - NH4Cl, 250 µM): 0.0463

CCCCCC=CCC=CCCCCCCCC(=O)O [Linoaleic acid]
LC3 puncta (log2) (NH4Cl: + NH4Cl, 10 µM): 0.722 | LC3 puncta (log2) (NH4Cl: + NH4Cl, 50 µM): 1.36 | LC3 puncta (log2) (NH4Cl: + NH4Cl, 100 µM): 1.01 | LC3 puncta (log2) (NH4Cl: - NH4Cl, 10 µM): 0.542 | LC3 puncta (log2) (NH4Cl: - NH4Cl, 50 µM): 0.956 | LC3 puncta (log2) (NH4Cl: - NH4Cl, 100 µM): 0.433
